Data from ChEMBL document CHEMBL3885881, “DrugMatrix”.

Organism: Rattus norvegicus
Experiment: DrugMatrix - Regimen: Daily Repeat
Format: toxicity, organism-based, Sprague-Dawley
Parameters: regimen Daily Repeat, gender Male, age 6-8 weeks
Settings: in vivo, po, route oral GAVAGE, vehicle .5 % CMC; for URIC ACID / ALANINE AMINOTRANSFERASE / ALBUMIN / ALKALINE PHOSPHATASE / ASPARTATE AMINOTRANSFERASE / BLOOD UREA NITROGEN / CARBON DIOXIDE / CHLORIDE / CHOLESTEROL / CREATINE PHOSPHOKINASE / CREATININE / GLUCOSE / LACTATE DEHYDROGENASE / LIPASE / PHOSPHORUS / POTASSIUM / SODIUM / TOTAL BILIRUBIN / TOTAL PROTEIN: tissue Plasma; for ABSOLUTE BASOPHIL / ABSOLUTE EOSINOPHIL / ABSOLUTE LYMPHOCYTE / ABSOLUTE MONOCYTE / ABSOLUTE SEGMENTED NEUTROPHIL / BASOPHIL / EOSINOPHIL / ERYTHROCYTE COUNT / HEMATOCRIT / HEMOGLOBIN / LEUKOCYTE COUNT / LYMPHOCYTE / MEAN CORPUSCULAR HEMOGLOBIN / MEAN CORPUSCULAR HEMOGLOBIN CONCENTRATION / MEAN CORPUSCULAR VOLUME / MONOCYTE / NEUTROPHIL / NUCLEATED RED BLOOD CELLS / PLATELET COUNT: tissue Blood
[1] = 10 mg/kg, 120 h, dose level Low, time 5 day
[2] = 400 mg/kg, 72 h, dose level High, time 3 day
[3] = 400 mg/kg, 120 h, dose level High, time 5 day

SMILES: CC(C)(C#N)c1cc(Cn2cncn2)cc(C(C)(C)C#N)c1 [ANASTROZOLE]
- URIC ACID (10 mg/kg, 72 h, dose level Low, time 3 day): 1.33 mg/dL
- ABSOLUTE BASOPHIL [1]: 0 CELLS/uL
- ABSOLUTE EOSINOPHIL [1]: 0 CELLS/uL
- ABSOLUTE LYMPHOCYTE [1]: 12980 CELLS/uL
- ABSOLUTE MONOCYTE [1]: 0 CELLS/uL
- ABSOLUTE SEGMENTED NEUTROPHIL [1]: 1020 CELLS/uL
- BASOPHIL [1]: 0%
- EOSINOPHIL [1]: 0%
- ERYTHROCYTE COUNT [1]: 5.49 x10E6/uL
- HEMATOCRIT [1]: 34.93%
- HEMOGLOBIN [1]: 13.93 G/DL
- LEUKOCYTE COUNT [1]: 14 x10E3/uL
- LYMPHOCYTE [1]: 92.67%
- MEAN CORPUSCULAR HEMOGLOBIN [1]: 25.4 pg
- MEAN CORPUSCULAR HEMOGLOBIN CONCENTRATION [1]: 39.87 G/DL
- MEAN CORPUSCULAR VOLUME [1]: 63.57 fL
- MONOCYTE [1]: 0%
- NEUTROPHIL [1]: 7.33%
- NUCLEATED RED BLOOD CELLS [1]: 0 /100WBC
- PLATELET COUNT [1]: 1087.67 x10E3/uL
- ALANINE AMINOTRANSFERASE [1]: 48 u/L
- ALBUMIN [1]: 4.1 G/DL
- ALKALINE PHOSPHATASE [1]: 364.67 u/L
- ASPARTATE AMINOTRANSFERASE [1]: 77.33 u/L
- BLOOD UREA NITROGEN [1]: 18.33 mg/dL
- CARBON DIOXIDE [1]: 26 mmol/L
- CHLORIDE [1]: 103 MEQ/L
- CHOLESTEROL [1]: 60.67 mg/dL
- CREATINE PHOSPHOKINASE [1]: 224.33 u/L
- CREATININE [1]: 0.14 mg/dL
- GLUCOSE [1]: 146 mg/dL
- LACTATE DEHYDROGENASE [1]: 164 u/L
- LIPASE [1]: 9.33 u/L
- PHOSPHORUS [1]: 13.6 mg/dL
- POTASSIUM [1]: 7.31 MEQ/L
- SODIUM [1]: 142.23 MEQ/L
- TOTAL BILIRUBIN [1]: 0.2 mg/dL
- TOTAL PROTEIN [1]: 5.87 G/DL
- URIC ACID [1]: 1.9 mg/dL
- ABSOLUTE BASOPHIL [2]: 0 CELLS/uL
- ABSOLUTE EOSINOPHIL [2]: 0 CELLS/uL
- ABSOLUTE LYMPHOCYTE [2]: 16859 CELLS/uL
- ABSOLUTE MONOCYTE [2]: 135.33 CELLS/uL
- ABSOLUTE SEGMENTED NEUTROPHIL [2]: 1372.33 CELLS/uL
- BASOPHIL [2]: 0%
- EOSINOPHIL [2]: 0%
- ERYTHROCYTE COUNT [2]: 5.62 x10E6/uL
- HEMATOCRIT [2]: 34.7%
- HEMOGLOBIN [2]: 13.6 G/DL
- LEUKOCYTE COUNT [2]: 18.37 x10E3/uL
- LYMPHOCYTE [2]: 91.67%
- MEAN CORPUSCULAR HEMOGLOBIN [2]: 24.17 pg
- MEAN CORPUSCULAR HEMOGLOBIN CONCENTRATION [2]: 39.17 G/DL
- MEAN CORPUSCULAR VOLUME [2]: 61.7 fL
- MONOCYTE [2]: 0.67%
- NEUTROPHIL [2]: 7.67%
- NUCLEATED RED BLOOD CELLS [2]: 0.33 /100WBC
- PLATELET COUNT [2]: 1228.33 x10E3/uL
- ALANINE AMINOTRANSFERASE [2]: 89 u/L
- ALBUMIN [2]: 4.27 G/DL
- ALKALINE PHOSPHATASE [2]: 433 u/L
- ASPARTATE AMINOTRANSFERASE [2]: 126 u/L
- BLOOD UREA NITROGEN [2]: 17.33 mg/dL
- CARBON DIOXIDE [2]: 28.33 mmol/L
- CHLORIDE [2]: 98.33 MEQ/L
- CHOLESTEROL [2]: 69.33 mg/dL
- CREATINE PHOSPHOKINASE [2]: 255 u/L
- CREATININE [2]: 0.3 mg/dL
- GLUCOSE [2]: 143 mg/dL
- LACTATE DEHYDROGENASE [2]: 237 u/L
- LIPASE [2]: 11.33 u/L
- PHOSPHORUS [2]: 11.7 mg/dL
- POTASSIUM [2]: 7.49 MEQ/L
- SODIUM [2]: 141.93 MEQ/L
- TOTAL BILIRUBIN [2]: 0.17 mg/dL
- TOTAL PROTEIN [2]: 5.87 G/DL
- URIC ACID [2]: 1.83 mg/dL
- ABSOLUTE BASOPHIL [3]: 0 CELLS/uL
- ABSOLUTE EOSINOPHIL [3]: 0 CELLS/uL
- ABSOLUTE LYMPHOCYTE [3]: 11924.33 CELLS/uL
- ABSOLUTE MONOCYTE [3]: 19.67 CELLS/uL
- ABSOLUTE SEGMENTED NEUTROPHIL [3]: 1989.33 CELLS/uL
- BASOPHIL [3]: 0%
- EOSINOPHIL [3]: 0%
- ERYTHROCYTE COUNT [3]: 5.98 x10E6/uL
- HEMATOCRIT [3]: 35.47%
- HEMOGLOBIN [3]: 14.6 G/DL
- LEUKOCYTE COUNT [3]: 13.93 x10E3/uL
- LYMPHOCYTE [3]: 82%
- MEAN CORPUSCULAR HEMOGLOBIN [3]: 24.43 pg
- MEAN CORPUSCULAR HEMOGLOBIN CONCENTRATION [3]: 41.17 G/DL
- MEAN CORPUSCULAR VOLUME [3]: 59.37 fL
- MONOCYTE [3]: 0.33%
- NEUTROPHIL [3]: 17.67%
- NUCLEATED RED BLOOD CELLS [3]: 0.67 /100WBC
- PLATELET COUNT [3]: 1447 x10E3/uL
- ALANINE AMINOTRANSFERASE [3]: 478.67 u/L
- ALBUMIN [3]: 4.53 G/DL
- ALKALINE PHOSPHATASE [3]: 622.67 u/L
- ASPARTATE AMINOTRANSFERASE [3]: 1130.67 u/L
- BLOOD UREA NITROGEN [3]: 22 mg/dL
- CARBON DIOXIDE [3]: 21.33 mmol/L
- CHLORIDE [3]: 99.33 MEQ/L
- CHOLESTEROL [3]: 88.33 mg/dL
- CREATINE PHOSPHOKINASE [3]: 445.67 u/L
- CREATININE [3]: 0.46 mg/dL
- GLUCOSE [3]: 115 mg/dL
- LACTATE DEHYDROGENASE [3]: 826.67 u/L
- LIPASE [3]: 14.33 u/L
- PHOSPHORUS [3]: 11.97 mg/dL
- POTASSIUM [3]: 6.47 MEQ/L
- SODIUM [3]: 142.23 MEQ/L
- TOTAL BILIRUBIN [3]: 0.17 mg/dL
- URIC ACID [3]: 2.23 mg/dL
